Data on one compound can be found in publication PMC9861180, “Nintedanib-αVβ6 Integrin Ligand Conjugates Reduce TGFβ-Induced EMT in Human Non-Small Cell Lung Cancer” (International Journal of Molecular Sciences, 2023).

“Also recorded” adds a separate entry of the source.

The test system of one test is K562 cells. Kind of test: Cell internalization by flow cytometry, αvβ6-negative K562. The test is classed as cell-based, human. The following applies: 5 µM. An excerpt: In these cells, 74% of cells were positive after exposure to compound 1, whilst after exposure to compounds 2 and 3, positive cells ranged between 43.8 and 49% (Figure 4A). […] In addition, we investigated the internalization in αvβ6-negative K562 cells. […] Finally, two other αvβ6 integrin-expressing cell lines were used to evaluate the internalization of these compounds, namely the human melanoma cells SSM2c (Figure S4B) and the L929 murine fibroblasts (Figure S5B).
Briefly, A549 cells were seeded in standard medium (2 × 10^6 cells/100 mm Petri dishes, Sarstedt), and after adhesion, cells were grown in the presence or in the absence of TGFβ (10 ng/mL) for 48 h. […] After 24 h, cells were gently detached using Accutase (ECB3056D, Euroclone, Pero, Milano, Italy) or trypsin and the fluorescence, associated with different cell populations, was evaluated using the BV480 channel of the FACSCanto BD instrument (using 405 nm laser). Untreated cells were used as the negative control. The same procedure was applied to evaluate the internalization in K562, SSM2c, and L929 cells.
3. Expression of αvβ6 integrin receptor in K562 human erythroleukemic cells and internalization of conjugated compounds or nintedanib
Figure S3. Expression of αvβ6 integrin receptor in K562 human erythroleukemia cells (A). […]
assessed by flow cytometry measurements at 5 µM concentration. […]
as assessed by flow cytometry. […]
(In general: In flow cytometry, cells or beads pass a laser one at a time.)

Test [1] deals with TGFβ-treated A549 cells. Kind of test: cells. The test is classed as cell-based, human. On the procedure:
A549 cell viability was assessed using MTT (3-(4,5-dimethylthiazol-2-yl)-2,5-diphenyltetrazolium bromide) tetrazolium reduction assay (M5655, Sigma Aldrich, Milan, Italy), as described in [58]. Briefly, A549 cells were treated for 48 h in complete medium with TGFβ (10 ng/mL). Next, cells (2.5 × 10^3) were plated into 96-multiwell plates in 100 µL of complete medium. After adhesion, the compounds were added to the medium at different concentrations. After 24 h exposure, the medium was replaced with 100 µL MTT reagent in each well, and plates were incubated at 37 °C. After 2 h, MTT was removed, and the blue MTT–formazan product was solubilized with dimethyl sulfoxide (DMSO, Sigma Aldrich). The absorbance of the formazan solution was read at 595 nm using the microplate reader (Bio-Rad, Milan, Italy). Inhibition of cell proliferation was calculated by the IC50 calculator (AAT Bioquest, Inc., Pleasanton, CA, USA, https://www.aatbio.com/ (accessed on 1 July 2022)).

The test system of test [2] is α-smooth muscle actin (α-SMA). Kind of test: α-smooth muscle actin protein expression, Western blot. The test is classed as cell-based, human. The following applies: TGFβ-treated A549 cells, 5 μM, 24 h.
Protocol: Data are expressed as means ± SEM of fold increment compared to untreated cells normalized to α-tubulin.
Western blot analysis was performed on whole-cell lysates of A549 cells, exposed for 48 h to TGFβ treatment and subsequently exposed to 5 µM concentrations of different compounds. After 24 h incubation, media were rapidly removed and cell monolayers were lysed as previously described in RIPA lysis buffer, with the addition of proteinase inhibitor cocktail (04693124001 Roche Merk Life Science S.r.l., Milano, Italy) for 30 min in ice [35]. Protein content was quantified, and forty-fifty micrograms of total proteins were separated on Bolt® Bis-Tris Plus gels 4–12% (Life Technologies, Monza, Italy). Fractionated proteins were transferred from the gel to a PVDF nitrocellulose membrane using iBlot 2 system (Life Technologies, Monza, Italy). Membranes were blocked for 5 min at room temperature, with EveryBlot Biorad blocking buffer (Life Technologies, Monza, Italy). […] The protein bands were analyzed by the Odyssey Infrared Imaging System (Lycor Bioscience) using software for protein quantification. […]
In test [3] the test system is tumor spheroids of TGFβ-treated A549 cells and murine L929 fibroblasts. As to the kind of experiment: Inhibition of 3D tumor spheroid growth. The test is classed as cell-based, human. The following applies: 5 µM, 72 h, vs untreated spheroids.
Protocol: Heterogeneous spheroids of tumor cells and fibroblasts were generated using the hanging drop technique to mimic the complex three-dimensional environment of tumor tissues. […] Next, the fluorescence intensities associated with each cell population were analyzed as previously described.
Hanging drop tumor spheroids were prepared starting from 1:1 mixed cell population (1000 cells/25μL) of TGF𝛽-treated A549 cells and murine L929 fibroblasts. […] (C) Quantitative analysis of inhibition of 3D growth and (D) 3D spheroid internalization of the compounds after 72 h exposure. Data are representative of three independent experiments (n = 6) and expressed as means ± SEM. * p < 0.05 vs. untreated spheroids.
A549 cells, exposed for 48 h to TGFβ treatment, were mixed in a 1:1 ratio with murine L929 fibroblast (40,000/mL) in order to obtain 3D multicellular tumor spheroids (MCTS) resembling cellular heterogenicity of the neoplastic lesion. […] After one week, multicellular tumor spheroids were completely formed. Tumor spheroids were next used in different experimental procedures. […] For 3D growth inhibition, spheroids were placed on 2% agarose coated dishes in complete medium containing the different treatments at 5 µM concentration. Spheroid areas were analysed and compared to time 0 and used to evaluate the inhibition of 3D growth (yellow lines). Images of all spheroids were taken daily using the EVOS XL Core Imaging System with a 10x objective (Thermofisher Scientific, Waltham, MA, USA ). All images were analysed using the open-source software ImageJ (1.52a, National Institutes of Health, Bethesda, MD, USA).
Test [4] has the same test system. As to the kind of experiment: Tumor spheroid 2D flat surface migration and growth. The test is classed as cell-based, human. The following applies: 5 µM, fibronectin-coated flat surface.
Protocol: Heterogeneous spheroids of tumor cells and fibroblasts were also used to evaluate the ability of the compounds to inhibit 2D flat surface migration and growth once the spheroids were allowed to attach to a suitable surface (Figure 8).
Hanging drop tumor spheroids were allowed to spread on a 2D fibronectin-coated flat surface. […] Data are representative of three independent experiments (n = 6) and expressed as means ± SEM. * p < 0.05 vs. untreated spheroids.
A549 cells, exposed for 48 h to TGFβ treatment, were mixed in a 1:1 ratio with murine L929 fibroblast (40,000/mL) in order to obtain 3D multicellular tumor spheroids (MCTS) resembling cellular heterogenicity of the neoplastic lesion. […] After one week, multicellular tumor spheroids were completely formed. Tumor spheroids were next used in different experimental procedures. We evaluated 2D flat surface inhibition of migration and growth, and the inhibition of 3D growth. For 2D flat surface migration and growth inhibition assays, the spheroids were placed on regular culture dishes and allowed to spread and grow in complete medium containing different compounds at 5 µM concentration. The areas of cell spreading were used as parameters for migration (red lines), while the areas of the spheroid core were used as parameters for 2D growth (yellow lines). For 3D growth inhibition, spheroids were placed on 2% agarose coated dishes in complete medium containing the different treatments at 5 µM concentration. Spheroid areas were analysed and compared to time 0 and used to evaluate the inhibition of 3D growth (yellow lines). Images of all spheroids were taken daily using the EVOS XL Core Imaging System with a 10x objective (Thermofisher Scientific, Waltham, MA, USA ). All images were analysed using the open-source software ImageJ (1.52a, National Institutes of Health, Bethesda, MD, USA).
Test [5] concerns TGFβ-treated A549 cells. Kind of test: Invasion assay through fibronectin-coated filters. The test is classed as cell-based. The following applies: Homo sapiens, 24 h, read-out: migration inhibition (invasiveness) with respect to control.
Protocol: The first assay envisaged the evaluation of cellular invasiveness of TGFβ-treated A549 cells by measuring the capacity of cells to migrate through fibronectin-coated filters.
Cells were allowed to migrate towards fibronectin-coated filters (10 μg/μL). Right panel, quantification of invasiveness. Data are percentages of migrated cells compared to untreated cells and expressed as mean value ± SEM of at least three independent experiments. * p < 0.05 and ** p < 0.001 vs. untreated cells. […] Experiments were performed at least three times.
Invasiveness of A549 cells was determined in vitro on fibronectin-precoated polycarbonate inserts (Sarstedt 83.3932.800, 8µm pore size, 0.3 cm^2 growth surface). Briefly, 50 µL of 10 μg/mL of fibronectin solution were seeded on each insert and allowed to dry in sterile conditions (1.6 µg/cm^2). A549 human lung carcinoma cells were grown in the presence of TGFβ for 48 h. After incubation, 3.5 × 10^4 cells were exposed to the different compounds, in serum-free medium (at 5 µM concentration), seeded in the upper compartment of the insert, and were free to perform in the absence of any chemoattractant. Inserts were incubated for 24 h at 37 °C in 10% CO2 in air. […] Photographs of randomly chosen fields were taken, and migrated cells were counted in 4 field/photograph.
The test system of test [6] is TGFβ-treated A549 cells. As to the kind of experiment: F-actin cytoskeleton by confocal analysis (rhodamine-phalloidin). The settings on record: 5 μM, 24 h. The test is classed as cell-based, human.
Protocol: After incubation, cells were fixed and processed for fluorescence confocal imaging. The cell cytoskeleton was stained with rhodamine-conjugated phalloidin. Image dimensions: 180 × 180 μm, scale bar 50 μm. Experiments were performed at least three times. (C) Quantification of disassembled cytoskeleton expressed as the percentage of cells with point-like fluorescence signals/total cells per field. Data are representative of three independent experiments. * p < 0.05, and ** p < 0.001 vs. TGFβ treated cells.
A549 cells, exposed for 48 h to TGFβ treatment, were grown on fibronectin-coated (10 µg/mL) (sc-29011 SantaCruz, D.B.A., Milano Italy) glass coverslips in 6-well plates for 2 h, after which adherent cells were exposed to the different treatments, in the absence of FCS, for 24h. After incubation, the culture medium was removed, cells were washed with PBS, and fixed 30 min at 4 °C with 3.7% paraformaldehyde. Cells were permeabilized for 15 min with PBS 0.1% Tryton X-100 at room temperature, and then incubated 1 h at room temperature with blocking buffer (0.1% Tryton X-100 and 5.5% horse serum PBS). […] A single composite image was obtained by superimposition of 20 optical sections for each sample analyzed.
The next test relates to E-cadherin. Kind of test: E-cadherin expression, Western blot. The test is classed as cell-based, human. The following applies: TGFβ-treated A549 cells, 5 μM, 24 h.
Test [7] relates to TGFβ-treated A549 cells. As to the kind of experiment: Clonogenic assay. The following applies: sorted fluorescence-positive TGFβ-treated A549 cells after 5 μM 24 h; 2 weeks growth. The test is classed as cell-based, human.
Protocol: (A) After incubation, cells were sorted (BDMelody) and isolated cells from the selected population (indicated as P4) were seeded at low density (1000 cells/6 well petri dishes). (B) Number of colonies obtained after 2 weeks growth in standard media. (C) Quantification of colonies.
A549 lung adenocarcinoma cells were grown in the presence of TGFβ for 48 h. […] At the end of the incubation, cells were sorted using a fluorescence activated cell sorter (Melody, Becton Dickinson, Bioscience, Eysins, Switzerland). […] Activation of the labelled cells was provided by the violet laser (ex = 405 nm) while sorting of the activated cells was performed by their emitted wavelength at 480 nm (detection filter 450/50, using the BV480 channel). Isolated cells (1 × 10^3) were seeded in a FN-coated 6 well dishes. These isolated cells were cultured for 2 weeks. The medium was changed every 4 days until the emergence of colonies. The colonies were fixed and stained with Diff-Quick solution.

Protocol for E-cadherin: Left panel, representative Western blot of E-cadherin protein expression.
Western blot analysis was performed on whole-cell lysates of A549 cells, exposed for 48 h to TGFβ treatment and subsequently exposed to 5 µM concentrations of different compounds. After 24 h incubation, media were rapidly removed and cell monolayers were lysed as previously described in RIPA lysis buffer, with the addition of proteinase inhibitor cocktail (04693124001 Roche Merk Life Science S.r.l., Milano, Italy) for 30 min in ice [35]. Protein content was quantified, and forty-fifty micrograms of total proteins were separated on Bolt® Bis-Tris Plus gels 4–12% (Life Technologies, Monza, Italy). Fractionated proteins were transferred from the gel to a PVDF nitrocellulose membrane using iBlot 2 system (Life Technologies, Monza, Italy). Membranes were blocked for 5 min at room temperature, with EveryBlot Biorad blocking buffer (Life Technologies, Monza, Italy). Subsequently, the membranes were probed at 4 °C overnight with appropriate primary antibodies diluted in a solution of 1:1 Odyssey blocking buffer/T-PBS buffer, washed four times with PBS-Tween 0.1% solution, and probed with the secondary IRDye antibodies according to manufacturering instructions. The protein bands were analyzed by the Odyssey Infrared Imaging System (Lycor Bioscience) using software for protein quantification. […]

Regarding `COC(=O)c1ccc2c(c1)NC(=O)/C2=C(\Nc1ccc(N(C)C(=O)CN2CCN(C)CC2)cc1)c1ccccc1` [nintedanib, Nintedanib], the “fluorescence-positive cells (compound internalization)” value in the test on K562 cells is recorded as 95–100%. Besides, the “inhibition of cell proliferation (in words)” value in the test with TGFβ-treated A549 cells [1] (0.5-50 μM, 24 h (Figure S8)) was “concentration-dependent inhibition”. The IC50 in the test on TGFβ-treated A549 cells [1] (Homo sapiens, A549, 24 h, read-out: IC50, inhibition of cell proliferation (MTT)) is 7.5 µM. Further, the “inhibition of cell proliferation (in words)” value with TGFβ-treated A549 cells [1] (TGFβ-treated A549 cells, concentrations >10 μM) is on record as “almost completely inhibited”. Moreover, the α-SMA protein expression result in test [2] is listed as “reduced by half”. For the same compound, the “inhibition of 3D spheroid growth” value in [3] is listed as “inhibited significantly”. In addition, in test [4], the “2D flat surface migration of tumor spheroids” value is given as “significantly impaired; also recorded: strong inhibition” and the “2D growth of tumor spheroids (spheroid core)” value was “significantly impaired”. The inhibition at 5 µM with TGFβ-treated A549 cells [5] was 80%. The F-actin bundle disassembly entry in the test on TGFβ-treated A549 cells [6] is on record as “more significant reduction in the assembly of F-actin filaments”. Also, the E-cadherin expression entry in the test with E-cadherin was “enhanced”. Besides, the “reduction of colony formation compared to untreated cells” value in the test with TGFβ-treated A549 cells [7] amounted to 50%.
